Measurements from US10030020B2, “Spirocycle compounds and methods of making and using same” (Abide Therapeutics, Inc., priority 2016, dated 2018).
Where two headings read alike, the source gives them in different places.

Key:
Format in all cases: biochemical
MAGL = MAGL (Mus musculus (Mouse), UniProt O35678); assay: In vitro competitive activity-based protein profiling (mouse brain membrane fraction or cell lysates), MAGL band; conditions: for inhibition at 1 µM: read-out: MAGL % Inh 1 μM (mouse); for IC50: competitive ABPP
Chain of MAGL (O35678 whole entry): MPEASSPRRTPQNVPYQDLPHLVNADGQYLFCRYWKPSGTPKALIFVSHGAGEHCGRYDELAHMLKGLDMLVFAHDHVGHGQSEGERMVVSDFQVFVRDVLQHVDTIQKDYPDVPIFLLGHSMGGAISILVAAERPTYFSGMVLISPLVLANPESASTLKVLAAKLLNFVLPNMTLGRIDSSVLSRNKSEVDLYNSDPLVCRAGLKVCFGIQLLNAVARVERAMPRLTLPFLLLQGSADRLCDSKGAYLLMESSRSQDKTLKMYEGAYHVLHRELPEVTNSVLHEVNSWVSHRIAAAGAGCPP
Method: (§1) In Vitro Competitive Activity-Based Protein Profiling.
(§2) Proteomes (mouse brain membrane fraction or cell lysates) (50 μL, 1.0 mg/mL total protein concentration) were preincubated with varying concentrations of inhibitors at 37° C. After 30 min, FP—Rh (1.0 μL, 50 μM in DMSO) was added and the mixture was incubated for another 30 min at 37° C. Reactions were quenched with SDS loading buffer (50 μL-4×) and run on SDS-PAGE.

FAAH = FAAH (Mus musculus (Mouse), UniProt O08914); assay: In vitro competitive activity-based protein profiling (mouse brain membrane fraction or cell lysates), FAAH band; conditions: for inhibition at 1 µM: read-out: FAAH % Inh 1 μM (mouse); for IC50: competitive ABPP
Chain of FAAH (O08914 whole entry): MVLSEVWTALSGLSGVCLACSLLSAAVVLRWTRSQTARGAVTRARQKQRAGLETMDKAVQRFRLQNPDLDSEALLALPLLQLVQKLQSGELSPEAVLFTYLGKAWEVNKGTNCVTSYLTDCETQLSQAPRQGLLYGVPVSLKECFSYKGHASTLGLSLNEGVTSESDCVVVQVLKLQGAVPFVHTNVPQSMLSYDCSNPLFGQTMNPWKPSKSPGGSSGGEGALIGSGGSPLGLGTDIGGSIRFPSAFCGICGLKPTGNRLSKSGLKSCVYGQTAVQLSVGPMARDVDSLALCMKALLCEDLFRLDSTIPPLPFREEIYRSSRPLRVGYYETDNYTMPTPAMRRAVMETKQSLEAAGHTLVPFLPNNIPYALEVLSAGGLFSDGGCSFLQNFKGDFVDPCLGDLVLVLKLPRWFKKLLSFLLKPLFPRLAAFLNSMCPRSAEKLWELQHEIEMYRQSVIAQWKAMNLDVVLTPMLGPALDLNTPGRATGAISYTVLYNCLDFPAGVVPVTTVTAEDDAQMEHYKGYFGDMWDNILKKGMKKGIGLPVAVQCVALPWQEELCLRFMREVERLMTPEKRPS
Method: as §1
as §2, with “SDS-PAGE. Following gel imaging, serine hydrolase activity was determined by measuring fluorescent intensity of gel bands corresponding to MAGL, ABHD6 and FAAH using ImageJ 1.43u software.” for “SDS-PAGE.”

ABHD6 = ABHD6 (Mus musculus (Mouse), UniProt Q8R2Y0); assay: In vitro competitive activity-based protein profiling (mouse brain membrane fraction or cell lysates), ABHD6 band; conditions: for inhibition at 1 µM: read-out: ABHD6 % Inh 1 μM (mouse); for IC50: competitive ABPP
Chain of ABHD6 (Q8R2Y0 whole entry): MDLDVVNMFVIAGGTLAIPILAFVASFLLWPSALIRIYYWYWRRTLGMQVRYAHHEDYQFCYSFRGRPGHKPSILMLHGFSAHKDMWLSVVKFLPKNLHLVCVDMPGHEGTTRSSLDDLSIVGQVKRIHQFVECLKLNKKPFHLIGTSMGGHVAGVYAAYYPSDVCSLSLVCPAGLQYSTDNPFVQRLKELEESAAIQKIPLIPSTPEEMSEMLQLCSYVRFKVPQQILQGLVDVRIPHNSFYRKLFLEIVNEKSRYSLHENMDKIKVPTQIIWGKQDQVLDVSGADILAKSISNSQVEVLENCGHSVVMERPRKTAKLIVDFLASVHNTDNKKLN
Method: as §1
as §2, with “SDS-PAGE. Following gel imaging, serine hydrolase activity was determined by measuring fluorescent intensity of gel bands corresponding to MAGL, ABHD6 and FAAH using ImageJ 1.43u software.” for “SDS-PAGE.”

inhibition at 1 µM (MAGL; mouse) | inhibition at 1 µM (FAAH; mouse) | inhibition at 1 µM (ABHD6; mouse) | inhibition at 1 µM (MAGL; mouse proteome) | IC50 (MAGL; mouse proteome) | inhibition at 1 µM (FAAH; mouse proteome) | IC50 (FAAH; mouse proteome) | inhibition at 1 µM (ABHD6; mouse proteome) | IC50 (ABHD6; mouse proteome) | SMILES
25 to 75% | < 25% | < 25% | – | – | – | – | – | – | O=C(O)c1ccccc1CN1CCCC12CCN(C(=O)OC(C(F)(F)F)C(F)(F)F)CC2 [Example 251]
– | – | – | 25 to 75% | 100 to 1000 nM | < 25% | > 1000 nM | < 25% | > 1000 nM | O=C(OC(C(F)(F)F)C(F)(F)F)N1CCC2(CCCN2Cc2ccc(C(F)(F)F)cc2N2CCCCCC2)CC1 [Example 95, 1,1,1,3,3,3-Hexafluoropropan-2-yl 1-(2-(azepan-1-yl)-4-(trifluoromethyl)benzyl)-1,8-diazaspiro[4.5]decane-8-carboxylate]
– | – | – | > 75% | 100 to 1000 nM | < 25% | > 1000 nM | < 25% | > 1000 nM | O=C(OC(C(F)(F)F)C(F)(F)F)N1CCC2(CCCN2Cc2ccc(OCCN3CCCCC3)c(Cl)c2)CC1 [Example 15, 1,1,1,3,3,3-Hexafluoropropan-2-yl 1-(3-chloro-4-(2-(piperidin-1-yl)ethoxy)benzyl)-1,8-diazaspiro[4.5]decane-8-carboxylate]
> 75% | < 25% | < 25% | – | – | – | – | – | – | O=C(O)c1ccc(CN2CCCC23CCN(C(=O)OC(C(F)(F)F)C(F)(F)F)CC3)cc1 [Example 250]
– | – | – | > 75% | < 100 nM | < 25% | > 1000 nM | < 25% | > 1000 nM | Cc1c(CN2CCCC23CCN(C(=O)OC(C(F)(F)F)C(F)(F)F)CC3)cccc1N1CCOCC1 [Example 83, 1,1,1,3,3,3-Hexafluoropropan-2-yl 1-(2-methyl-3-morpholinobenzyl)-1,8-diazaspiro[4.5]decane-8-carboxylate]
– | – | – | > 75% | < 100 nM | < 25% | > 1000 nM | ≥ 75% | > 1000 nM | CCN1CCc2cccc(CN3CCC4(CCN(C(=O)OC(C(F)(F)F)C(F)(F)F)CC4)C3)c2C1 [Example 159, 1,1,1,3,3,3-Hexafluoropropan-2-yl 2-((2-ethyl-1,2,3,4-tetrahydroisoquinolin-8-yl)methyl)-2,8-diazaspiro[4.5]decane-8-carboxylate]
– | – | – | > 75% | 100 to 1000 nM | < 25% | > 1000 nM | ≥ 75% | 100 to 1000 nM | O=C(OC(C(F)(F)F)C(F)(F)F)N1CCC2(CCCN2Cc2ccc(Cl)cc2N2CCS(=O)(=O)CC2)CC1 [Example 103, 1,1,1,3,3,3-Hexafluoropropan-2-yl 1-(4-chloro-2-(1,1-dioxidothiomorpholino)benzyl)-1,8-diazaspiro[4.5]decane-8-carboxylate]
– | – | – | > 75% | – | < 25% | – | ≥ 75% | – | O=C(O)[C@@H]1CCCN(c2cc(CN3CCC4(CCN(C(=O)OC(C(F)(F)F)C(F)(F)F)CC4)C3)cc(C(F)(F)F)c2)C1 [Example 208]
– | – | – | > 75% | – | < 25% | – | ≥ 75% | 100 to 1000 nM | CC(=O)N1CCCc2cccc(CN3CCC4(CCN(C(=O)OC(C(F)(F)F)C(F)(F)F)CC4)C3)c21 [Example 70, 1,1,1,3,3,3-Hexafluoropropan-2-yl 2-((1-acetyl-1,2,3,4-tetrahydroquinolin-8-yl)methyl)-2,8-diazaspiro[4.5]decane-8-carboxylate]
– | – | – | > 75% | – | < 25% | – | < 25% | – | O=C(O)C1CCN(c2cc(CN3CCCC34CCN(C(=O)OC(C(F)(F)F)C(F)(F)F)CC4)cc(OC(F)(F)F)c2)CC1 [Example 207]
– | – | – | > 75% | < 100 nM | < 25% | > 1000 nM | < 25% | > 1000 nM | O=C(OC(C(F)(F)F)C(F)(F)F)N1CCC2(CCCN2Cc2ccc(Cl)c(N3CCOCC3)c2)CC1 [Example 131, 1,1,1,3,3,3-Hexafluoropropan-2-yl 1-(4-chloro-3-morpholinobenzyl)-1,8-diazaspiro[4.5]decane-8-carboxylate]
– | – | – | > 75% | < 100 nM | < 25% | > 1000 nM | ≥ 75% | 100 to 1000 nM | O=C(OC(C(F)(F)F)C(F)(F)F)N1CCC2(CCCN2Cc2ccc(C(F)(F)F)cc2N2CCS(=O)(=O)CC2)CC1 [Example 92, 1,1,1,3,3,3-Hexafluoropropan-2-yl 1-(2-(1,1-dioxidothiomorpholino)-4-(trifluoromethyl)benzyl)-1,8-diazaspiro[4.5]decane-8-carboxylate]
– | – | – | > 75% | < 100 nM | < 25% | > 1000 nM | < 25% | > 1000 nM | CC1(C)CC2(CCN(C(=O)OC(C(F)(F)F)C(F)(F)F)CC2)CN1Cc1cccc(OC(F)(F)F)c1N1CCOCC1 [Example 190, 1,1,1,3,3,3-Hexafluoropropan-2-yl 3,3-dimethyl-2-(2-morpholino-3-(trifluoromethoxy)benzyl)-2,8-diazaspiro[4.5]decane-8-carboxylate]
– | – | – | > 75% | 100 to 1000 nM | < 25% | > 1000 nM | < 25% | > 1000 nM | O=C(OC(C(F)(F)F)C(F)(F)F)N1CCC2(CCCN2Cc2ccc(Cl)cc2N2CCCCCC2)CC1 [Example 106, 1,1,1,3,3,3-Hexafluoropropan-2-yl 1-(2-(azepan-1-yl)-4-chlorobenzyl)-1,8-diazaspiro[4.5]decane-8-carboxylate]
– | – | – | > 75% | < 100 nM | < 25% | > 1000 nM | 25 to 75% | 100 to 1000 nM | NC(=O)c1ccc(CN2CCCC23CCN(C(=O)OC(C(F)(F)F)C(F)(F)F)CC3)cc1C(F)(F)F [Example 181, 1,1,1,3,3,3-Hexafluoropropan-2-yl 1-(4-carbamoyl-3-(trifluoromethyl)benzyl)-1,8-diazaspiro[4.5]decane-8-carboxylate]
– | – | – | > 75% | 100 to 1000 nM | < 25% | > 1000 nM | 25 to 75% | 100 to 1000 nM | CC1(C)CC2(CCN(C(=O)OC(C(F)(F)F)C(F)(F)F)CC2)CN1Cc1cc(N2CCOCC2)cc(C(F)(F)F)c1 [Example 188, 1,1,1,3,3,3-Hexafluoropropan-2-yl 3,3-dimethyl-2-(3-morpholino-5-(trifluoromethyl)benzyl)-2,8-diazaspiro[4.5]decane-8-carboxylate]
– | – | – | > 75% | 100 to 1000 nM | < 25% | > 1000 nM | ≥ 75% | < 100 nM | O=C(OC(C(F)(F)F)C(F)(F)F)N1CCC2(CCN(Cc3ccc4c(c3)COC4)C2)CC1 [Example 153, 1,1,1,3,3,3-Hexafluoropropan-2-yl 2-((1,3-dihydroisobenzofuran-5-yl)methyl)-2,8-diazaspiro[4.5]decane-8-carboxylate]
– | – | – | > 75% | < 100 nM | < 25% | > 1000 nM | ≥ 75% | < 100 nM | CC(=O)N1CCc2cccc(CN3CCC4(CCN(C(=O)OC(C(F)(F)F)C(F)(F)F)CC4)C3)c2C1 [Example 160, 1,1,1,3,3,3-Hexafluoropropan-2-yl 2-((2-acetyl-1,2,3,4-tetrahydroisoquinolin-8-yl)methyl)-2,8-diazaspiro[4.5]decane-8-carboxylate]
– | – | – | > 75% | 100 to 1000 nM | < 25% | > 1000 nM | ≥ 75% | 100 to 1000 nM | O=C(OC(C(F)(F)F)C(F)(F)F)N1CCC2(CCN(Cc3ccc(N4CCCC4)c(Cl)c3)C2)CC1 [Example 139, 1,1,1,3,3,3-Hexafluoropropan-2-yl 2-(3-chloro-4-(pyrrolidin-1-yl)benzyl)-2,8-diazaspiro[4.5]decane-8-carboxylate]
– | – | – | > 75% | – | < 25% | > 1000 nM | ≥ 75% | < 100 nM | O=C(OC(C(F)(F)F)C(F)(F)F)N1CCC2(CCN(Cc3ccc(N4CCOCC4)c(Cl)c3)C2)CC1 [Example 138, 1,1,1,3,3,3-Hexafluoropropan-2-yl 2-(3-chloro-4-morpholinobenzyl)-2,8-diazaspiro[4.5]decane-8-carboxylate]
– | – | – | > 75% | – | < 25% | > 1000 nM | < 25% | > 1000 nM | O=C(OC(C(F)(F)F)C(F)(F)F)N1CCC2(CCCN2Cc2cccc(N3CCN(C4CC4)CC3)c2Cl)CC1 [Example 115, 1,1,1,3,3,3-Hexafluoropropan-2-yl 1-(2-chloro-3-(4-cyclopropylpiperazin-1-yl)benzyl)-1,8-diazaspiro[4.5]decane-8-carboxylate]
